From publication PMC4554294 (Biochemistry and Biophysics Reports, 2015)

Assays:
Assay in all cases: saturation transfer difference
Type in all cases: binding
[1] = target: T1, sucrose phosphorylase (LmSPase) (Leuconostoc mesenteroides, UniProt Q59495)
T1 sequence (Q59495 1-490): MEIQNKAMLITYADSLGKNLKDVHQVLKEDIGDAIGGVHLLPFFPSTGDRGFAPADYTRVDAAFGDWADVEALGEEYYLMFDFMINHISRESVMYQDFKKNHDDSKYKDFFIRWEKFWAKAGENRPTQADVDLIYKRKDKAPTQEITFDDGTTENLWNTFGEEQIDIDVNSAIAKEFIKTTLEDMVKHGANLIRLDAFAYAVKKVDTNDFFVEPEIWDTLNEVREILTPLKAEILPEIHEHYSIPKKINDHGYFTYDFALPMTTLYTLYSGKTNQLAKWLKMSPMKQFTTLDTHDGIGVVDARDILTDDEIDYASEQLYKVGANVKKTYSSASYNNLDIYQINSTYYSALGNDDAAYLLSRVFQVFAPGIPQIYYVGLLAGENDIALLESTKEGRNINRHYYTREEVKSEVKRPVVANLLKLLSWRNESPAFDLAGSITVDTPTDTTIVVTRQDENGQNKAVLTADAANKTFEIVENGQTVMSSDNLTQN

[2] = target: T2, sucrose phosphorylase (LmSPase) (Leuconostoc mesenteroides, UniProt Q59495, F52A)
T2 sequence (Q59495 1-490 F52A): T1 sequence (Q59495 1-490)

[3] = target: T3, sucrose phosphorylase (LmSPase) (Leuconostoc mesenteroides, UniProt Q59495, F52A/E237A)
T3 sequence (Q59495 1-490 F52A/E237A): T1 sequence (Q59495 1-490)

[4] = target: T4, sucrose phosphorylase (LmSPase) (Leuconostoc mesenteroides, UniProt Q59495, F52A/D196A)
T4 sequence (Q59495 1-490 F52A/D196A): T1 sequence (Q59495 1-490)

[5] = target: T5, sucrose phosphorylase (LmSPase) (Leuconostoc mesenteroides, UniProt Q59495, F52A/D295A)
T5 sequence (Q59495 1-490 F52A/D295A): T1 sequence (Q59495 1-490)

Question: What does the source list for `O=P(O)(O)O[C@H]1O[C@H](CO)[C@@H](O)[C@H](O)[C@H]1O` [αGlc 1-P, α-D-glucose 1-phosphate]?
Answer: saturation transfer difference (STD) NMR, 7 μM enzyme, 5.0 mM ligand [1]: Binding of αGlc 1-P to LmSPase resulted in a characteristic pattern of STD effects; saturation transfer difference (STD) NMR [2]: STD effects in αGlc 1-P were considerably weaker in F52A mutant than in wild-type enzyme; saturation transfer difference (STD) NMR [3]: suggesting that binding of αGlc 1-P did take place in each double mutant; saturation transfer difference (STD) NMR [4]: Incubation of either double mutant with αGlc 1-P gave rise to distinct STD effects in the ligand; saturation transfer difference (STD) NMR; steady-state kinetics [5]: STD signal intensities were higher on binding of αGlc 1-P to F52A_D295A mutant as compared to wild-type
